The source of these data is PubChem BioAssay (NCI).

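Where inhibition never reached the appropriate level, the endpoint shown equals the highest concentration tested. Otherwise, values were interpolated linearly from a five-concentration, 48-hour dose response in 96-well plates. Definition used: TGI = concentration required for complete inhibition of growth.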

Among the test systems are HL-60(TB) leukemia; HOP-92 NSCLC; MOLT-4 leukemia; NCI-H460 lung; OVCAR-3 ovarian; SR leukemia; SW-620 colon; TK-10 renal; U251 CNS; UACC-257 melanoma; UO-31 renal.
Test in all cases: NCI anticancer screen, dose series, 48 h

With `C=CC[C@@]1(C#N)C[C@H](C[C@]2(C#N)C[C@H](CCl)OC(C)(C)O2)OC(C)(C)O1`, the TGI in the assay on HL-60(TB) leukemia, in the assay with HOP-92 NSCLC, in the assay with MOLT-4 leukemia, in the assay on NCI-H460 lung, in the assay on OVCAR-3 ovarian and in the assay with SR leukemia was greater than 100 µM each time. In addition, the TGI in the assay with SW-620 colon, in the assay with TK-10 renal, in the assay on U251 CNS, with UACC-257 melanoma and with UO-31 renal was greater than 100 µM each time.

On to `S=C1NC2=C(COC/C2=C\c2ccccc2Cl)C(c2ccccc2Cl)N1` (configuration not stated), for which the TGI in the assay on HL-60(TB) leukemia is 34.4 µM; with HOP-92 NSCLC, greater than 100 µM; in the assay with MOLT-4 leukemia it was 44.5 µM; with NCI-H460 lung it was greater than 100 µM; in the assay with OVCAR-3 ovarian, greater than 100 µM; in the assay on SR leukemia, 20.9 µM. For the same compound, the TGI with SW-620 colon, in the assay with TK-10 renal, in the assay on U251 CNS, with UACC-257 melanoma and in the assay with UO-31 renal was greater than 100 µM throughout.

In the case of `O=C(O)C1C2CCC(C2)C1c1ccccc1` (configuration not stated), the TGI in the assay on HL-60(TB) leukemia, with HOP-92 NSCLC, in the assay on MOLT-4 leukemia, with NCI-H460 lung, in the assay on OVCAR-3 ovarian and with SR leukemia was greater than 100 µM in each case. Moreover, the TGI in the assay on SW-620 colon, in the assay with TK-10 renal, in the assay on U251 CNS, in the assay with UACC-257 melanoma and in the assay on UO-31 renal was greater than 100 µM in each case.

As for `CCOC(=O)c1[nH]n(-c2ccccc2)c(=O)c1C=NC(=S)C(N)=S`, the TGI with HL-60(TB) leukemia, with HOP-92 NSCLC, in the assay on MOLT-4 leukemia, with NCI-H460 lung, with OVCAR-3 ovarian and with SR leukemia was greater than 100 µM throughout. The TGI in the assay with SW-620 colon is greater than 100 µM; in the assay with TK-10 renal it was greater than 100 µM; in the assay on U251 CNS, greater than 100 µM; in the assay with UACC-257 melanoma, greater than 100 µM; in the assay on UO-31 renal, 42.2 µM.

Turning to `CC1(C)CC(=O)C2=C(C1)N(c1ccccc1)C1(O)C=CC(=O)C3=C(O)c4ccccc4C(=O)C321` (configuration not stated), the TGI in the assay on HL-60(TB) leukemia is greater than 100 µM; in the assay on HOP-92 NSCLC, 58.5 µM; in the assay on MOLT-4 leukemia, greater than 100 µM; in the assay on NCI-H460 lung, 83.9 µM; with OVCAR-3 ovarian it was greater than 100 µM; in the assay on SR leukemia it was 56.4 µM. For the same compound, the TGI in the assay on TK-10 renal is 52.2 µM; with U251 CNS, greater than 100 µM; in the assay with UACC-257 melanoma, greater than 100 µM; in the assay on UO-31 renal, 47 µM.

For `CCc1c(-c2coc(CC/C(C)=C/c3ccccc3)n2)oc(OC)c(C)c1=O`, the TGI in the assay on HL-60(TB) leukemia is 97.9 µM; with HOP-92 NSCLC, greater than 100 µM; with MOLT-4 leukemia, greater than 100 µM; in the assay on NCI-H460 lung it was greater than 100 µM; in the assay with OVCAR-3 ovarian, greater than 100 µM; in the assay on SR leukemia, 29.3 µM. For the same compound, the TGI in the assay with SW-620 colon was greater than 44.7 µM; with TK-10 renal, greater than 100 µM; with U251 CNS, greater than 53.9 µM; with UACC-257 melanoma, greater than 100 µM; in the assay on UO-31 renal, greater than 53.1 µM.

On to `OC1NC2CC3NC(O)C(O)NC3CC2NC1O` (configuration not stated), for which the TGI in the assay on HL-60(TB) leukemia, in the assay with HOP-92 NSCLC, in the assay on MOLT-4 leukemia, in the assay with NCI-H460 lung, in the assay on OVCAR-3 ovarian and with SR leukemia was greater than 100 µM each time. Further, the TGI in the assay with SW-620 colon, in the assay with TK-10 renal, in the assay on U251 CNS, in the assay on UACC-257 melanoma and in the assay with UO-31 renal was greater than 100 µM throughout.

With `Nc1ccc(S(=O)(=O)c2ccc(N=[N+]([O-])c3ccc(S(=O)(=O)c4ccc(N)cc4)cc3)cc2)cc1`, the TGI in the assay on HL-60(TB) leukemia was greater than 100 µM; in the assay with HOP-92 NSCLC it was 38.4 µM; with MOLT-4 leukemia it was greater than 100 µM; with NCI-H460 lung it was greater than 100 µM; with OVCAR-3 ovarian, greater than 56 µM; with SR leukemia, greater than 100 µM. In addition, the TGI is greater than 100 µM with SW-620 colon; greater than 88 µM with TK-10 renal; greater than 57.3 µM in the assay on U251 CNS; greater than 100 µM in the assay on UACC-257 melanoma; greater than 100 µM with UO-31 renal.

Turning to `O=C1O[C@H](COC(=O)c2ccccc2)[C@@H](OC(=O)c2ccccc2)C=C1OC(=O)c1ccccc1`, the TGI with HL-60(TB) leukemia amounted to 27.1 µM; with HOP-92 NSCLC it was 42.8 µM; in the assay with MOLT-4 leukemia, 56 µM; in the assay with NCI-H460 lung it was 36.6 µM; with OVCAR-3 ovarian, 35.9 µM; in the assay on SR leukemia, 46.9 µM. For the same compound, the TGI with SW-620 colon was 35.9 µM; in the assay on TK-10 renal, 75.7 µM; with U251 CNS, 32.3 µM; with UACC-257 melanoma it was 69.3 µM; in the assay on UO-31 renal it was greater than 100 µM.

`Cc1ccc(C(=O)/C=C/N2CCN(c3cccc(C(F)(F)F)c3)CC2)cc1`: the TGI with HL-60(TB) leukemia is 60.2 µM; with HOP-92 NSCLC it was greater than 100 µM; in the assay with MOLT-4 leukemia it was 48.2 µM; in the assay on NCI-H460 lung, 47.8 µM; in the assay with OVCAR-3 ovarian it was 28.5 µM; in the assay with SR leukemia it was 40.3 µM. In addition, the TGI in the assay on SW-620 colon amounted to 49.8 µM; in the assay with TK-10 renal, 56.8 µM; with U251 CNS, 31.4 µM; in the assay on UACC-257 melanoma it was 32.5 µM; with UO-31 renal, 36.7 µM.

For `Cn1c2cc(Cl)ccc2c2ccc3c(c21)C(=O)C=CC3=O`, the TGI was 45.9 µM in the assay with HL-60(TB) leukemia; 35.8 µM with HOP-92 NSCLC; 10.3 µM with MOLT-4 leukemia; greater than 100 µM in the assay on NCI-H460 lung; 17.1 µM in the assay on OVCAR-3 ovarian; 26.1 µM in the assay on SR leukemia. The TGI was 17.9 µM with SW-620 colon; 56.6 µM in the assay with TK-10 renal; greater than 100 µM in the assay on U251 CNS; greater than 77.3 µM with UACC-257 melanoma; greater than 100 µM in the assay on UO-31 renal.

Consider `CC1(C)N=C(/C(C#N)=[N+](/[O-])C(=O)c2ccccc2)C(C)(C)N1O`, for which the TGI in the assay with HL-60(TB) leukemia, with HOP-92 NSCLC, in the assay on MOLT-4 leukemia, in the assay with NCI-H460 lung, with OVCAR-3 ovarian and in the assay on SR leukemia was greater than 100 µM throughout. Further, the TGI in the assay with SW-620 colon, with TK-10 renal, in the assay with U251 CNS, in the assay on UACC-257 melanoma and in the assay with UO-31 renal was greater than 100 µM each time.

Take `CN(C)C(=O)CO/N=C1/C(c2c(O)[nH]c3ccccc23)=Nc2ccccc21`: the TGI with HL-60(TB) leukemia, with HOP-92 NSCLC, with MOLT-4 leukemia, in the assay on NCI-H460 lung, in the assay on OVCAR-3 ovarian and in the assay on SR leukemia was greater than 100 µM throughout. Further, the TGI in the assay on SW-620 colon, with TK-10 renal, in the assay with U251 CNS, with UACC-257 melanoma and in the assay with UO-31 renal was greater than 100 µM each time.
